Results on eight compounds are retold here after patent publication US4692447A, “Tricyclic dihydropyridazinones and pharmaceutical compositions containing them” (Boehringer Biochemia Robin, S.p.A., priority 1984, dated 1987).

SMILES strings stand for the structures.

Data set [1] relates to paw edema induced by carrageenin. In words: paw edema induced by carrageenin. The class given is in vivo. To be noted: 20, 60 and 200 mg/kg; for reducing the paw edema induced by carrageenin: oral route; for activity in paw edema relative to ASA: oral, more active than ASA. For orientation: In the carrageenan paw model, swelling and tenderness develop within hours.
The nature of data set [2]: acute toxicity in mice (LD50). Conditions: mouse, in vivo. On the procedure: First of all, the compounds of the present invention are characterized by a low acute toxicity and a very favourable therapeutic index.
The compounds were administered by oral and intraperitoneal route.

Data set [3] deals with sudden death induced by arachidonate in mice. In words: protection against sudden death induced by arachidonate in mice. Conditions: vs ASA.
Data set [4] relates to platelet-rich plasma (PRP) from guinea pigs. Nature of the data set: in vitro platelet aggregation in platelet-rich plasma, Born aggregometer. The class given is cell-based. To be noted: vs ASA.
The test system of data set [5] is conscious normal and in spontaneously hypertensive rats. Nature of the data set: hypotensive effect in conscious normal and spontaneously hypertensive rats. The class given is in vivo. On the procedure:
This is particularly the case of compounds like as BBR-1511, 1513 and 1509 which show only a little (5-8 mmHg) even if prolonged hypotensive effect when tested in conscious normal and in spontaneously hypertensive rats at doses ranging from 100 to 200 mg/kg by intraperitoneal route.

Data set [6] deals with sudden death induced by arachidonate in mice. Nature of the data set: protection against sudden death induced by arachidonate in mice. The class given is in vivo. Conditions: oral; for protection against sudden death compared with ASA: 20 mg/kg vs ASA 200 mg/kg; for increase of protection as compared with ASA: screening dosage 20 mg/kg vs ASA 200 mg/kg. An excerpt:
The same compounds from BBR-1507 to BBR-1513, given orally, protected against sudden death induced by arachidonate in mice.

Data set [7] relates to SHR Rats. Nature of the data set: hypotensive effect in conscious spontaneously hypertensive rats (Table 2). The class given is in vivo. More on the design: ΔBP sist: unit not given here. An excerpt: (§1) As it is shown in Table 2, the decrease of the systolic median blood pressure was long lasting and the length of the effect was dose-related.
The test system of data set [8] is Normotensive rats. Nature of the data set: hypotensive effect in conscious normotensive rats (Table 2). The class given is in vivo. Conditions: os.
Text: as §1

[9] abbreviates: conscious normal and SHR rats, 100 to 200 mg/kg, intraperitoneal, prolonged.
[10] abbreviates: intraperitoneal and oral, conscious normotensive and SHR rats, qualitative.

As for `O=C1CC2CCc3cc(NC(=O)CCl)ccc3C2=NN1` (racemic) [BBR-1514, dl-8-chloroacetylamino-4,4a,5,6-tetrahydro-2H-benzo(h)-cinnolin-3-one], in data set [1], the “reducing the paw edema induced by carrageenin” value (“reducing the paw edema induced” below) is “inactive”. The LD50 (as a rule, the dose at which mortality reaches 50%) in data set [2] (ip) is above 1000 mg/kg; in data set [2] (po, os) it was above 1000 mg/kg. Further, the “inhibiting platelet aggregation in vivo compared with ASA” value in data set [3] was “at least equiactive as ASA”. The “inhibiting platelet aggregation in vitro compared with ASA” value in data set [4] is listed as “at least equiactive as ASA”.

For the compound `Nc1ccc2c(c1)CCCC1CC(=O)NN=C21` (racemic) [BBR-1513, dl-9-amino-2,4,4a,5,6,7-hexahydro-3H-benzo-[6,7]-cyclohepten[1,2-c]-pyridazin-3-one], in data set [1], the “reducing the paw edema induced” value is reported as “scarcely effective”. For the same compound, the LD50 was 483 mg/kg in data set [2] (ip) and 700 mg/kg in data set [2] (po, os). Also, the “inhibiting platelet aggregation in vivo compared with ASA” value in data set [3] is “at least equiactive as ASA”. Besides, the “inhibiting platelet aggregation in vitro compared with ASA” value in data set [4] is on record as “at least equiactive as ASA”. Also, the hypotensive effect in data set [5] (setting [9]) is given as 5-8 mmHg. Besides, the “protection against sudden death compared with ASA” value in data set [6] is recorded as “equiactive as acetylsalicylic acid (ASA)”.

For the compound `Nc1ccc2c(c1)CC1CC(=O)NN=C21` (racemic) [BBR-1512, dl-7-amino-4,4a-dihydro-5H-indeno[1,2-c]-pyridazin-3-one], the LD50 in data set [2] (ip) came out at 200 mg/kg; in data set [2] (po, os), 400 mg/kg. Further, the “increase of protection as compared with ASA” value (“increase of protection” below) in data set [6] was 20-30%.

As for `CC(=O)Nc1ccc2c(c1)CCC1CC(=O)NN=C21` (racemic) [BBR-1508, dl-8-acetylamino-4,4a,5,6-tetrahydro-2H-benzo(h)-cinnolin-3-one], the “reducing the paw edema induced” value in data set [1] is “effective in reducing the paw edema”. Moreover, in data set [1], the “activity in paw edema relative to ASA” value is on record as 1.5-2 times. Besides, the LD50 in data set [2] (ip) is 360 mg/kg; in data set [2] (po, os), above 1000 mg/kg. The hypotensive effect entry in data set [5] (setting [10]) was “more evident and prolonged hypotensive effect”. Also, the “duration” value in data set [7] (i.p., 12.5 mg/kg) amounted to 3 h; in data set [7] (i.p., 25 mg/kg), 3 h; in data set [7] (os, 3.125 mg/kg), 2 h; in data set [7] (os, 6.25 mg/kg) it was 4 h; in data set [7] (os, 12.5 mg/kg), 4.6 h; in data set [7] (os, 25 mg/kg), 4.6 h. Also, the figures for the “duration” value in data set [8] (6.25 mg/kg), in data set [8] (12.5 mg/kg) and in data set [8] (25 mg/kg) were 1.5 h, 4 h and 4 h, respectively. For the same compound, the ΔBP sist in data set [7] (i.p., 12.5 mg/kg) was -50; in data set [7] (i.p., 25 mg/kg) it was -90; in data set [7] (os, 3.125 mg/kg) it was -30; in data set [7] (os, 6.25 mg/kg), -30; in data set [7] (os, 12.5 mg/kg), -55; in data set [7] (os, 25 mg/kg) it was -65. Further, the ΔBP sist entry in data set [8] (3.125 mg/kg) is “inactive”; in data set [8] (6.25 mg/kg) it was -8; in data set [8] (12.5 mg/kg) it was -20; in data set [8] (25 mg/kg) it was -48. Moreover, the “increase of protection” value in data set [6] is recorded as 40%.

For the compound `CCCCN1N=C2c3ccc(N)cc3CCC2CC1=O` (racemic) [BBR-1511], the LD50 was 1000 mg/kg in data set [2] (ip) and above 1000 mg/kg in data set [2] (po, os). The hypotensive effect in data set [5] (setting [9]) is on record as 5-8 mmHg. Further, the “protection against sudden death compared with ASA” value in data set [6] is reported as “equiactive as acetylsalicylic acid (ASA)”.

In the case of `Nc1ccc2c(c1)CCC1CC(=O)NN=C21` (racemic) [BBR-1510, dl-8-amino-4,4a,5,6-tetrahydro-2H-benzo(h)-cinnolin-3-one], the “reducing the paw edema induced” value in data set [1] was “effective in reducing the paw edema”. In addition, the “activity in paw edema relative to ASA” value in data set [1] is recorded as 1.5-2 times. Further, the LD50 in data set [2] (ip) is 610 mg/kg; in data set [2] (po, os) it was above 1000 mg/kg. For the same compound, the hypotensive effect result in data set [5] (setting [10]) was “more evident and prolonged hypotensive effect”. The “duration” value in data set [7] (i.p., 6.25 mg/kg) is 1 h; in data set [7] (i.p., 12.5 mg/kg) it was above 4 h; in data set [7] (os, 1.56 mg/kg), 1 h; in data set [7] (os, 3.125 mg/kg), 2 h; in data set [7] (os, 6.25 mg/kg) it was 3.4 h; in data set [7] (os, 12.5 mg/kg), above 3 h. Moreover, the “duration” value in data set [8] (12.5 mg/kg) was above 6 h. Moreover, the ΔBP sist is given as -55 in data set [7] (i.p., 6.25 mg/kg); -80 in data set [7] (i.p., 12.5 mg/kg); -48 in data set [7] (os, 1.56 mg/kg); -46 in data set [7] (os, 3.125 mg/kg); -40 in data set [7] (os, 6.25 mg/kg); -60 in data set [7] (os, 12.5 mg/kg). In data set [8] (12.5 mg/kg), this compound registered a ΔBP sist of -28. In addition, the “increase of protection” value in data set [6] is recorded as 20-30%.

Take `CC(=O)Nc1ccc2c(c1)CC1CC(=O)NN=C21` (racemic) [BBR-1507, dl-7-acetylamino-4,4a-dihydro-5H-indeno-[1,2-c]pyridazin-3-one]: in data set [1], the “reducing the paw edema induced” value was “effective in reducing the paw edema”. For the same compound, the “activity in paw edema relative to ASA” value in data set [1] was 1.5-2 times. Also, the LD50 in data set [2] (ip) was 310 mg/kg; in data set [2] (po, os), above 1000 mg/kg. For the same compound, in data set [5] (setting [10]), the hypotensive effect result was “more evident and prolonged hypotensive effect”. The “duration” value was above 4 h in data set [7] (i.p., 50 mg/kg); 1.5 h in data set [7] (os, 1.56 mg/kg); 3 h in data set [7] (os, 3.125 mg/kg); above 4 h in data set [7] (os, 6.25 mg/kg); 5.6 h in data set [7] (os, 12.5 mg/kg); 3 h in data set [8] (6.25 mg/kg). Moreover, the “duration” value in data set [8] (12.5 mg/kg) was determined as 3 h. The ΔBP sist is -55 in data set [7] (i.p., 50 mg/kg); -18 in data set [7] (os, 1.56 mg/kg); -25 in data set [7] (os, 3.125 mg/kg); -50 in data set [7] (os, 6.25 mg/kg); -58 in data set [7] (os, 12.5 mg/kg); -8 in data set [8] (6.25 mg/kg). In data set [8] (12.5 mg/kg), the ΔBP sist is reported as -26. In data set [6], the “increase of protection” value is recorded as 20-30%.

Consider `CC(=O)Nc1ccc2c(c1)CCCC1CC(=O)NN=C21` (racemic) [BBR-1509, dl-8-acetylamino-2,4,4a,5,6,7-hexahydro-3H-benzo[6,7]-cyclohepten[1,2-c]-pyridazin-3-one], for which the “reducing the paw edema induced” value in data set [1] is “inactive”. For the same compound, the LD50 was above 1000 mg/kg in data set [2] (ip) and above 1000 mg/kg in data set [2] (po, os). Also, the “inhibiting platelet aggregation in vivo compared with ASA” value in data set [3] was “at least equiactive as ASA”. For the same compound, in data set [4], the “inhibiting platelet aggregation in vitro compared with ASA” value is “at least equiactive as ASA”. The hypotensive effect in data set [5] (setting [9]) was 5-8 mmHg. Moreover, the “protection against sudden death compared with ASA” value in data set [6] is on record as “equiactive as acetylsalicylic acid (ASA)”.
